The values that follow come from patent publication US20140366219A1, “Increasing Soybean Defense Against Pests” (priority 2011, published 2014).

For assay [1], the target named is T1, GmSAMT1 (Glycine max, UniProt B5A7G5).
T1 sequence (B5A7G5 1-370): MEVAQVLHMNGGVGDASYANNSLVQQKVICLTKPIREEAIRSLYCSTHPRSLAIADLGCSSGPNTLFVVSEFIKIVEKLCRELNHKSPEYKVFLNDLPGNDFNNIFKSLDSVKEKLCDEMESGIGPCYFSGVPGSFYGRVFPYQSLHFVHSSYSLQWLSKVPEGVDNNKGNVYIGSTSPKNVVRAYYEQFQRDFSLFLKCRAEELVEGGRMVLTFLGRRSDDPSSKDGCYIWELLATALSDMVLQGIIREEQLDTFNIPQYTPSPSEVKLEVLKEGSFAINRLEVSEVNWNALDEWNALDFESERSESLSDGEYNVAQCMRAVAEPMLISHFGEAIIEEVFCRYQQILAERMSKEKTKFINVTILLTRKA
Nature of the assay: Radiochemical SAMT activity assay, substrate specificity of recombinant GmSAMT1. The format is biochemical, soybean. Conditions: all substrates at 1 mM, activity with salicylic acid set at 100%, average of three measurements. The method, then: (§1) A 50 μl volume containing 50 mM Tris-HCl, pH 7.5, 1 mM SA, and 3 μM ^14C-SAM with a specific activity of 51.4 mCi/mmol (Perkin-Elmer, Boston, Mass.) was used. The assay was initiated by addition of SAM, maintained at 25° C. for 30 min, and stopped by the addition of ethyl acetate (150 μl). After phase separation by 1 min centrifugation at 14,000 g, the upper organic phase was counted using a liquid scintillation counter (Beckman Coulter, Fullerton, Calif.). The radiation counts in the organic phase indicated the amount of synthesized MeSA. Substrate specificity assay was also performed for recombinant GmSAMT1, with a range of substrates including SA, benzoic acid, anthranilic acid, 3-hydroxybenzoic acid, 4-hydroxybenzoic acid, nicotinic acid, p-coumaric acid, caffeic acid, cinnamic acid, vanallic acid, jasmonic acid (JA), gibberellic acid, indole-3-acetic acid, and 2,4-dichlorophenoxyacetic acid. The activity with SA was set at 100%. Three independent assays were performed for each compound.

Assay [2] concerns the target T1, GmSAMT1. The experiment in a line: Effects of metal ions on activity of GmSAMT1. The format is biochemical, soybean. Conditions: chloride salts at 5 mM final concentration; control without metal ion set at 1.0. As to the method:
as §1
Appropriate enzyme concentrations and incubation time were determined in time course assays to make sure that the reaction velocity was linear during the assay period. Lineweaver-Burk plots yielded apparent Km values. To determine the Km for SA, concentrations of SA were independently varied from 2 to 150 μM, while SAM was held constant at 200 μM. Assays were conducted at 25° C. for 30 min, as described in SAMT activity assay. The optimal pH for GmSAMT1 was assayed from pH 6.0 to pH 9.0, and optimal reaction of temperature was assayed ranging from 0° C. to 60° C. Effects of metal ions on activity of GmSAMT1 were assayed with a range of metal ions, including K^+, Cu^2+, Zn^2+, Fe^2+, Fe^3+, Mn^2+, Ca^2+, Na^+, NH4^+, and Mg^2+, in the form of chloride salts at 5 mM final concentrations.

Consider `O=C(O)C=Cc1ccccc1` [Cinnamic acid, cinnamic acid], for which the “Relative activity of GmSAMT1 with substrate” value (“Relative activity of GmSAMT1” below) at GmSAMT1 [1] was 0%.
Consider `O=C(O)c1ccccc1O` [Salicylic acid, salicylic acid], for which the “Relative activity of GmSAMT1” value at GmSAMT1 [1] is on record as 100%.
As for `Nc1ccccc1C(=O)O` [Anthranilic acid, anthranilic acid], the “Relative activity of GmSAMT1” value at GmSAMT1 [1] came to 9.3%.
As to `CC/C=C\C[C@H]1C(=O)CC[C@@H]1CC(=O)O` [Jasmonic acid, jasmonic acid], the “Relative activity of GmSAMT1” value on GmSAMT1 [1] is recorded as 0%; at GmSAMT1 [1] (listed as JA) it was “no activity was detected”.
On to `[Cl-].[Cl-].[Zn+2]` [Zn^2+], for which, on GmSAMT1 [2], the “effect of metal ion on GmSAMT1 activity compared with control” value (from here on “effect … compared with control”) is recorded as “no activity”.
`[Cl][Fe][Cl]` [Fe^2+]: the “effect … compared with control” value on GmSAMT1 [2] was “no activity”.
With `[Cl-].[Cl-].[Mg+2]` [Mg^2+], at GmSAMT1 [2], the “effect … compared with control” value is given as “minimal effect”.
Turning to `Cl.N` [NH4^+], on GmSAMT1 [2], the “effect … compared with control” value is reported as “minimal effect”.
Regarding `[Cl-].[Na+]` [Na^+], at GmSAMT1 [2], the “effect … compared with control” value is on record as “minimal effect”.
In the case of `COc1cc(C(=O)O)ccc1O` [Vanallic acid, vanallic acid], on GmSAMT1 [1], the “Relative activity of GmSAMT1” value worked out at 0%.
With `[Cl-].[K+]` [K], the “effect … compared with control” value on GmSAMT1 [2] is “double activity”.
Consider `O=C(O)/C=C/c1ccc(O)c(O)c1` [Caffeic acid, caffeic acid], for which the “Relative activity of GmSAMT1” value at GmSAMT1 [1] was 0%.
Regarding `[Cl][Cu][Cl]` [Cu^2+], the “effect … compared with control” value on GmSAMT1 [2] is given as “no activity”.
Still for that read-out and setting: in the case of `[Ca+2].[Cl-].[Cl-]` [Ca^2+] it was “moderately inhibited”.
Regarding `O=C(O)Cc1c[nH]c2ccccc12` [Indole-3-acetic acid, indole-3-acetic acid], the “Relative activity of GmSAMT1” value on GmSAMT1 [1] is 0%; on GmSAMT1 [1] (listed as indole-3-acetic acid), “no activity was detected”.
With `[Cl][Mn][Cl]` [Mn^2+], at GmSAMT1 [2], the “effect … compared with control” value is “moderately inhibited”.
On to `O=C(O)c1ccc(O)cc1` [4-Hydroxybenzoic acid, 4-hydroxybenzoic acid], for which the “Relative activity of GmSAMT1” value on GmSAMT1 [1] turned out to be 0%.
As for `O=C(O)c1cccnc1` [Nicotinic acid, nicotinic acid], the “Relative activity of GmSAMT1” value at GmSAMT1 [1] is 0%.
Still for that read-out and setting: to `O=C(O)c1ccccc1` [Benzoic acid, benzoic acid] belongs 16.9%; to `O=C(O)COc1ccc(Cl)cc1Cl` [2,4-Dichlorophenoxyacetic acid, 2,4-dichlorophenoxyacetic acid], 0%.
For `O=C(O)c1cccc(O)c1` [3-Hydroxybenzoic acid, 3-hydroxybenzoic acid], on GmSAMT1 [1], the “Relative activity of GmSAMT1” value was determined as 1.8%.
Turning to `C=C1C[C@]23C[C@@]1(O)CC[C@H]2[C@@]12C=C[C@H](O)[C@@](C)(C(=O)O1)[C@H]2[C@@H]3C(=O)O` [Gibberellic acid, gibberellic acid], the “Relative activity of GmSAMT1” value at GmSAMT1 [1] was 0%; at GmSAMT1 [1] (listed as gibberellic acid) it was “no activity was detected”.
Regarding `O=C(O)/C=C/c1ccc(O)cc1` [p-Coumaric acid, p-coumaric acid], the “Relative activity of GmSAMT1” value at GmSAMT1 [1] is 0%.
